From US20220257592A1, “METHODS OF TREATING CANCER” (HOFFMANN-LA ROCHE INC., priority 2019, published 2022) come the findings set out here.

This series in a line: Circulating exposure at steady-state in patients. Type of series: in vivo, human.

Turning to `O=C(Nc1n[nH]c2ccc(Cc3cc(F)cc(F)c3)cc12)c1ccc(N2CCNCC2)cc1NC1CCOCC1` [M5], the “circulating M5 exposure as share of corresponding entrectinib exposure” value worked out at 40%.
